For one experiment, the system named is rat aortic vascular smooth muscle cells. The experiment can be described thus: PDGF-induced migration of rat aortic vascular smooth muscle cells (modified Boyden chamber, Transwell). Conditions: PDGF as chemoattractant, without inhibitor. Format: cell-based. The protocol:
The procedure for assessing vascular smooth muscle cell migration was described previously in Hidaka, Y., Eda, T., Yonemoto, M. & Kamei, T. (1992) Atheroscler. 95, 87-94. Briefly, rat aortic vascular smooth muscle cells (passage 3) were suspended (1×10^6 cells/ml) in serum free DMEM supplemented with 0.2% (w/v) bovine serum albumin (Sigma). Migration assays were performed in modified Boyden chambers using Transwell (Costar, Cambridge, Mass.) cell culture chambers with a polycarbonate 8μm pore size membrane. PDGF was dissolved in DMEM and placed in the lower compartment in the presence, or absence, of compounds of Formula (I) wherein R1, R2, R3, R5, R6 or R8 are independently OH. Vascular smooth muscle cells (5×10^5) were then loaded in the upper compartment and incubated for 24 h at 37° C. in a humidified atmosphere containing 5% CO2. Non-migrated cells on the upper surface were scraped away gently and washed three times with PBS. Filters were fixed in methanol and stained with Giemsa. The number of vascular smooth muscle cells per 100×high power field (HPF) that had migrated to the lower surface of the filters was determined microscopically. Four HPFs were counted per filter. Experiments were performed either in duplicate or triplicate.
PDGF produced concentration-dependent increases in the migration of rat vascular smooth muscle cells with maximal effect obtained at a concentration of 1 nM. […] IC50 values for compounds of Formula (I) wherein R1, R2, R3, R5, R6 or R8 are independently OH were as follows.
Take PDGF: the “concentration of maximal effect on migration” value is recorded as 1 nM.

The same experiment, now with this note: Rattus norvegicus; PDGF-induced migration; 24 h at 37° C; by position of OH group.
As a reminder, the IC50 is the point on the concentration scale where inhibition reaches its midpoint. For `COc1cc(O)ccc1OCCNCC(O)COc1cccc2[nH]c3ccccc3c12` (stereo not shown) [R1], half-maximal inhibition (IC50) was put at 0.99 µM.

The compound `COc1ccc(O)cc1OCCNCC(O)COc1cccc2[nH]c3ccccc3c12` (stereo not shown) [R2] showed an IC50 of 0.41 µM.

Turning to `COc1ccccc1OCCNCC(O)COc1c(O)ccc2[nH]c3ccccc3c12` (stereo not shown) [R3], the IC50 was 0.2 µM.

Turning to `COc1ccccc1OCCNCC(O)COc1ccc(O)c2[nH]c3ccccc3c12` (stereo not shown) [R5], inhibition was half-maximal at 0.18 µM (IC50).

As to `COc1ccccc1OCCNCC(O)COc1cccc2[nH]c3c(O)cccc3c12` (stereo not shown) [R6], the IC50 stood at 1.72 µM.

In the case of `COc1ccccc1OCCNCC(O)COc1cccc2[nH]c3ccc(O)cc3c12` (stereo not shown) [R8], half-maximal inhibition (IC50) was put at 0.36 µM.
